{
  "source": "paper PMC10076643",
  "about": "“Design, synthesis and anticancer activity studies of 3-(coumarin-3-yl)-acrolein derivatives: Evidenced by integrating network pharmacology and vitro assay” (Frontiers in Pharmacology, 2023)",
  "key": {"[1]": {"system": "A549 (human lung cancer cell line)", "experiment": "MTT antiproliferative assay, A549", "type": "cell-based", "conditions": "Homo sapiens, A549; MTT, 72 h", "description": "(§1) All the synthesized compounds were screened for in vitro antiproliferative activity against four human cancer cell lines A549 (human lung cancer cell line), KB (human oral epidermoid carcinoma cell line), Hela (human cervical carcinoma cell line), MCF-7 (human breast cancer cell line) and two human normal cell lines HUVEC (human umbilical vein endothelial cell) and LO2 (human normal hepatocytes) through the 3-(4,5-dimethyl-2-thiazolyl)-2,5-diphenyl-2-H-tetrazolium bromide (MTT) assay.\n(§2) Non-small-cell lung cancer (A549), oral epidermoid carcinoma (KB), cervical cancer (Hela) and breast cancer (MCF-7) cells were purchased from the American Type Culture Collection (ATCC, America). Human umbilical vein endothelial cell (HUVEC) and human normal hepatocytes (LO2) cells were provided by Guangzhou Medical University (Guangzhou, China). A549 and KB cells were cultured in RMPI-1640 medium (Gibco, America). Hela, MCF-7 and LO2 cells were cultured in DMEM medium (Gibco, America). HUVEC cells were cultured in Ham’s F-12K medium (Gibco, America). All the mediums were supplemented with 10% fetal bovine serum (FBS) (BI, State of Israel), 100 U/mL penicillin and 100 μg/mL streptomycin (Gibco, America), and all the cells were incubated in a sterile incubator at 37°C in an environment of 5% CO2. The tested compounds were dissolved in dimethyl sulfoxide (DMSO) at a concentration of 10 mM, and then diluted into different concentration of solutions by culture medium. The final concentration of DMSO was <0.01% (v/v) in all drug treatment groups to avoid the toxicity in the biological system. Untreated cells were used as a blank control and 5-fluorouracil treated cells were used as a positive control.\n(§3) The incubated tumor cells were planted into 96-well plates (4×10^3 cells/well). After 24 h, the cells were adherent to the wall and treated with the compound 6e in different concentrations (0.78, 1.56, 3.12, 6.25, 12.50, 25.00, and 50.00 μM) for 72 h. Afterwards, the medium was supplemented with 10 µL MTT solution. After 4 h, the culture medium was removed and 100 µL DMSO was added. The absorbance was determined at the wavelength of 540 nm and 655 nm using a microplate reader (BioTek Epoch, America). The results were collected from three independent experiments. The IC50 was then calculated by using GraphPad Prism Software (version 7.0) and non-linear regression (curve fit)."}, "[2]": {"system": "HUVEC (human umbilical vein endothelial cell)", "experiment": "MTT antiproliferative assay, HUVEC normal cells", "type": "cell-based", "conditions": "72 h", "description": "as §1, §2, §3"}, "[3]": {"system": "LO2 (human normal hepatocytes)", "experiment": "MTT antiproliferative assay, LO2 normal cells", "type": "cell-based", "conditions": "Hepatocyte, 72 h", "description": "as §1, §2, §3"}, "KB cells [4]": {"system": "KB cells", "experiment": "Scratch wound healing assay", "type": "cell-based, human", "conditions": "different concentrations (0.5 IC50, IC50, 2 IC50), after 24 h", "experimental": "(§4) Wound healing assay and transwell assay were performed to investigate the effect of compound 6e on the migratory capability of KB cells.\nIn vitro wound-healing assay, KB cells (5 × 10^5 cells/well) were seeded into 6-well plates and incubated at 37 °C in humidified atmosphere with 5% CO2 for 12 h. As the cells were adherent to the wall and the degree of fusion reached more than 90%, cell layers were gently scratched with a 200 μL pipette tip. […] Images of cells were photographed with the inverted fluorescence microscope (Leica DMi8, Germany) at 0 h and 24 h. The areas that were not covered by cells in the scratch wound were quantified by using ImageJ. Then the values obtained in each group were expressed by the percentage of wound closure of cells in the control group. The experiments were performed in triplicate."}, "KB cells [5]": {"system": "KB cells", "experiment": "Transwell migration assay", "type": "cell-based, human", "conditions": "2 IC50, 48 h", "experimental": "as §4\nInitially, KB cells (5×10^4 cells/well) were suspended in 200 μL of the FBS-free medium. Each upper chamber contained the vehicle and various concentrations of compound 6e (0.5 IC50, IC50, 2 IC50). Each lower chamber was filled with 600 μL of medium containing 10% FBS. After incubation at 37°C for 48 h, the cells upon the transwell membrane were removed with a cotton tip. The cells trapped on the bottom side of the membrane were fixed with methanol for 1 h and stained with crystal violet solution for 2 h. Subsequently, the chambers thoroughly washed with PBS. The migrated cells were then imaged with the inverted fluorescence microscope (Leica DMi8, Germany) and counted with ImageJ software for three independent fields randomly."}, "KB cells [6]": {"system": "KB cells", "experiment": "Transwell invasion assay (Matrigel)", "type": "cell-based, human", "conditions": "2 IC50, 48 h", "experimental": "Transwell invasion assay was carried out to evaluate the effect of compound 6e on KB cell invasion.\nFor invasion assay, the transwells (8 μm pore size, Corning Incorporated) were precoated with 40 μL Matrigel for 2 h at 37°C to achieve solidification. KB cells were harvested and resuspended in serum-free medium, treated with different concentrations of compound 6e (0.5 IC50, IC50, 2 IC50), and added into the upper wells of the transwell chamber at density of 1×10^5 cells/200 μL. Then 600 μL of RPMI-1640 containing 10% FBS was added into each lower chamber. After 48 h, the invaded cells in the lower champers were fixed with paraformaldehyde for 1 h and stained with crystal violet solution for 2 h. The non-invading cells in the upper chambers of the transwell plates were scraped away by cotton swabs. Next, the chambers were washed with PBS. The invaded cells were then imaged with the inverted fluorescence microscope (Leica DMi8, Germany) and counted with ImageJ software for three independent fields randomly."}, "Bax in KB cells": {"system": "Bax in KB cells", "experiment": "Western blot, Bax", "type": "cell-based, human", "conditions": "0.40 μM, 24 h", "description": "Based on the results of network pharmacology, the key proteins related to PI3K/AKT pathway were detected by Western blotting to explore the antitumor mechanism of compound 6e. […] Such an inconsistency might be due to a compensatory increase in PI3K level after the reduction of AKT phosphorylation level. Additionally, the active-caspase 3 protein, anti-apoptosis protein Bcl-2 and pro-apoptosis protein Bax were further analyzed. Caspase-3 normally exists in the cytoplasm as zymogen. During the early stage of apoptosis, caspase-3 (32 KD) is cleaved to the active 17-kD caspase-3 fragment, which is responsible for morphological and biochemical changes in apoptosis. Bcl-2 and Bax are the […] located on the mitochondrial membrane and capable of controlling the MMP (ΔΨm) and the activation of caspase cascade.\nA total of 4 × 10^5 KB cells were seeded into 6-well and grown for overnight. Then the cells adherent to the wall were treated with compound 6e in different concentrations (0, 0.40, 0.80, 1.60 μM) for 24 h. After that, cells were collected, SDS lysate, 100X protease inhibitor and 50X phosphorylation inhibitor were added in a certain proportion to lyse the cells. The protein content was determined by BCA reagent (Beyotime, China) according to the standard curve. […]"}},
  "data": [
    {"molecule": "O=CC=C(Cl)c1cc2ccc(OCc3ccccc3)cc2oc1=O", "note": "[Compound 6e, 3-(7-(Benzyloxy)-2-oxo-2H-chromen-3-yl)-3-chloroacrylaldehyde]", "values": [
      {"measurement": "IC50", "setting": "[1]", "result": "7.4 ± 0.2", "unit": "µM"},
      {"measurement": "IC50", "setting": "[2]", "result": "25.26 ± 0.2", "unit": "µM"},
      {"measurement": "IC50", "setting": "[3]", "result": "50.13 ± 0.03", "unit": "µM"},
      {"measurement": "scratched gaps of KB cells", "setting": "KB cells [4]", "result": "wider than that of the control group and 5-FU group"},
      {"measurement": "number of migration cells reduced compared with the control group", "setting": "KB cells [5]", "result": "approximately 93%"},
      {"measurement": "KB cell invasion reduced", "setting": "KB cells [6]", "result": "more than 64%"},
      {"measurement": "expression of Bax compared with the control group", "setting": "Bax in KB cells", "result": "upregulated"}
    ]}
  ]
}
